Data from ChEMBL document CHEMBL1154736, “Increasing selectivity of CC chemokine receptor 8 antagonists by engineering nondesolvation related interactions with the intended and off-target binding sites” (J Med Chem, 2009).

What was measured:
[1] = target: C-C chemokine receptor type 8 (Homo sapiens, UniProt P51685); experiment: Antagonist activity at human CCR8; assay type: functional
[2] = target: Voltage-gated inwardly rectifying potassium channel KCNH2 (Homo sapiens, UniProt Q12809, S624A); experiment: Inhibition of human recombinant ERG S624A mutant expressed in CHOK1 cells by whole-cell plate-based electrophysiology; details: cho-k1
[3] = target: Voltage-gated inwardly rectifying potassium channel KCNH2 (Homo sapiens, UniProt Q12809, S624T); experiment: Inhibition of human recombinant ERG S624T mutant expressed in CHOK1 cells by whole-cell plate-based electrophysiology; details: cho-k1
[4] = target: Voltage-gated inwardly rectifying potassium channel KCNH2 (Homo sapiens, UniProt Q12809, Y652A); experiment: Inhibition of human recombinant ERG Y652A mutant expressed in CHOK1 cells by whole-cell plate-based electrophysiology; details: cho-k1
[5] = target: Voltage-gated inwardly rectifying potassium channel KCNH2 (Homo sapiens, UniProt Q12809, Y652F); experiment: Inhibition of human recombinant ERG Y652F mutant expressed in CHOK1 cells by whole-cell plate-based electrophysiology; details: cho-k1
[6] = target: Voltage-gated inwardly rectifying potassium channel KCNH2 (Homo sapiens, UniProt Q12809, F656M); experiment: Inhibition of human recombinant ERG F656M mutant expressed in CHOK1 cells by whole-cell plate-based electrophysiology; details: cho-k1
[7] = target: Voltage-gated inwardly rectifying potassium channel KCNH2 (Homo sapiens, UniProt Q12809, F656T); experiment: Inhibition of human recombinant ERG F656T mutant expressed in CHOK1 cells by whole-cell plate-based electrophysiology; details: cho-k1
[8] = target: Voltage-gated inwardly rectifying potassium channel KCNH2 (Homo sapiens, UniProt Q12809, F656W); experiment: Inhibition of human recombinant ERG F656W mutant expressed in CHOK1 cells by whole-cell plate-based electrophysiology; details: cho-k1
[9] = target: T1, Voltage-gated inwardly rectifying potassium channel KCNH2 (Homo sapiens, UniProt Q12809); experiment: Displacement of [3H]dofetilide from human recombinant ERG expressed in HEK293 cells by patch clamp method
[10] = Apparent n-Octanol-water partition coefficient, log D at pH 7.4 by HPLC analysis
[11] = target: T1, Voltage-gated inwardly rectifying potassium channel KCNH2; experiment: Inhibition of wild type human ERG expressed in CHOK1 cells by whole-cell plate-based electrophysiology
[12] = target: Voltage-gated inwardly rectifying potassium channel KCNH2 (Homo sapiens, UniProt Q12809, T623S); experiment: Inhibition of human recombinant ERG T623S mutant expressed in CHOK1 cells by whole-cell plate-based electrophysiology; details: cho-k1

Sequence of C-C chemokine receptor type 8 (P51685 whole entry): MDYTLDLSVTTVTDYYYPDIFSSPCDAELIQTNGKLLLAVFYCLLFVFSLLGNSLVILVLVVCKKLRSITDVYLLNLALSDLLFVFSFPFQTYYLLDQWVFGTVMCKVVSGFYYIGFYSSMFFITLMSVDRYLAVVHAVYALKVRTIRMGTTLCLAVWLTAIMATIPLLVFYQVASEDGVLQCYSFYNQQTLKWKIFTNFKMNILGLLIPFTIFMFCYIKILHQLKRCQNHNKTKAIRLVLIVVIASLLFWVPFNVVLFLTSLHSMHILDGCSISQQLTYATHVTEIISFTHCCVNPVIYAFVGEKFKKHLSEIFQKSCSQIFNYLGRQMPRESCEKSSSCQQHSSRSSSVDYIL

SMILES | IC50 [1] | delta pIC50 wt-mutant [2] | delta pIC50 wt-mutant [3] | delta pIC50 wt-mutant [4] | delta pIC50 wt-mutant [5] | delta pIC50 wt-mutant [6] | delta pIC50 wt-mutant [7] | delta pIC50 wt-mutant [8] | IC50 [9] | logD [10] | IC50 [11] | delta pIC50 wt-mutant [12]
COc1ccccc1Oc1ccccc1CN1CCC2(CC1)CCN(C(=O)c1ccncc1)CC2 | 0.0115 µM |  |  |  |  |  |  |  |  |  |  | 
CC1(C)Cc2cccc(CN3CCC4(CC3)CCN(C(=O)c3ncccc3N)CC4)c2O1 | 0.0224 µM | 1.32 | 0.43 | 1.81 | 0.64 | -0.26 | 0.77 | -0.32 | 32.4 µM | 1.4 | 4.17 µM | 0.41
CC1(C)Cc2c(CN3CCC4(CC3)CCN(C(=O)c3ccc(N)cn3)CC4)cccc2O1 | 0.00813 µM | 0.79 | 0.31 | 1.23 | 0.68 | -0.22 | 0.2 | -0.66 | 12.9 µM | 1.3 | 16.6 µM | 0.49
C=C(C)COc1ccccc1CN1CCC2(CC1)CCN(C(=O)c1ccncc1)CC2 | 0.0708 µM |  |  |  |  |  |  |  |  | 1.6 |  | 
O=C(c1ccncn1)N1CCC2(CCN(Cc3ccccc3Oc3ccccc3)CC2)CC1 | 0.141 µM |  |  |  |  |  |  |  |  | 2 |  | 
CC1(C)CCc2cc(CN3CCC4(CC3)CCN(C(=O)c3ccc(N)cn3)CC4)ccc2O1 | 0.0955 µM | 1.09 | -0.28 | 0.83 | 0.47 | -0.66 | -0.09 | -0.35 | 32.4 µM | 1.1 | 19.5 µM | 0.24
CCCC1(CC)Cc2c(CN3CCC4(CC3)CCN(C(=O)c3ccc(N)cn3)CC4)cccc2O1 (stereo unspecified) | 0.0024 µM |  |  |  |  |  |  |  |  | 2.5 |  | 
CC(C)COc1ccccc1CN1CCC2(CC1)CCN(C(=O)c1ccncc1)CC2 | 0.107 µM |  |  |  |  |  |  |  |  | 1.8 |  | 
CC(C)COc1ccccc1CN1CCC2(CC1)CCN(C(=O)c1ccncn1)CC2 | 0.141 µM | 0.51 | 0.12 | 0.7 | -0.42 | 0.21 | 1.65 | -0.42 | 19.1 µM | -0.11 | 4.9 µM | 0.22
CC1(C)Cc2c(CN3CCC4(CC3)CCN(C(=O)c3ccnc(N)c3)CC4)cccc2O1 | 0.0224 µM | 0.55 | -0.58 | 0.89 | -0.37 | 0.14 | 1.32 | -0.61 | 17 µM | 1.4 | 28.8 µM | 0.01
CC(C)(C)C1(C)Cc2c(CN3CCC4(CC3)CCN(C(=O)c3ccc(N)cn3)CC4)cccc2O1 (stereo unspecified) | 0.00282 µM |  |  |  |  |  |  |  |  | 2.6 |  | 
